The text below walks through data of ChEMBL document CHEMBL1201862, “PubChem BioAssay data set” (2004).

Some test systems named below: NCI/ADR-RES; HOP-92; HCT-116; Hs-578T; MDA-MB-435; UO-31; SK-OV-3; LOX IMVI; U-251; HT-29; SF-268; OVCAR-8; RPMI-8226; NCI-H460; TK-10; SK-MEL-28; UACC-257; SW-620; HOP-62; A549.
Test in all cases: NCI-60 cell line screen, 48 h

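Dose response: 5 concentrations. Exposure: 48 h. Format: 96-well plates. Endpoint: linear interpolation; highest concentration if not reached. GI50 marks 50% less growth.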 The source made the active and inactive calls. No stated cut-off is given here; in the data, active = GI50 up to about 1.1 µM and inactive = higher. Square brackets hold non-standard residues; d marks the D form. Peptide text beside a SMILES is read from it. pGlu = O=C1CC[CH](C(=O)O)N1

Consider `COc1ccc(N(C(=O)OC(C)(C)C)[C@@H]2C(C)=C[C@H]([S@@+]([O-])c3ccc(C)cc3)[C@@H]3C(=O)N(C)C(=O)[C@@H]32)cc1`, for which the GI50 in the experiment with NCI/ADR-RES was 21.5 µM (inactive); in the experiment on HOP-92 it was 17.7 µM (inactive); in the experiment with HCT-116 it was 18.6 µM (inactive); in the experiment on Hs-578T it was 15.5 µM (inactive); in the experiment with MDA-MB-435, 15 µM (inactive); in the experiment on UO-31 it was 15.1 µM (inactive). The GI50 in the experiment on SK-OV-3 was 13.2 µM (inactive); with LOX IMVI it was 3.85 µM (inactive); in the experiment on U-251, 14 µM (inactive); with HT-29, 21.5 µM (inactive); in the experiment with SF-268, 12.6 µM (inactive); with OVCAR-8, 20.5 µM (inactive). The GI50 in the experiment with RPMI-8226 was 14.3 µM (inactive); with NCI-H460, 25.2 µM (inactive); in the experiment on TK-10, 17.1 µM (inactive); in the experiment on SK-MEL-28 it was 18.7 µM (inactive); with UACC-257 it was 17.5 µM (inactive); with SW-620, 20.9 µM (inactive). Further, the GI50 in the experiment on HOP-62 was 24.4 µM (inactive); in the experiment with A549 it was 19.3 µM (inactive).

As to `CC(C)(C)C#CI1OC(=O)c2ccccc21`, the GI50 was 5.52 µM (inactive) in the experiment with NCI/ADR-RES; 1.72 µM (inactive) in the experiment on HOP-92; 2.48 µM (inactive) in the experiment with HCT-116; 8.75 µM (inactive) with Hs-578T; 3.72 µM (inactive) with MDA-MB-435; 4.41 µM (inactive) in the experiment on UO-31. In addition, the GI50 was 11.4 µM (inactive) in the experiment with SK-OV-3; 1.09 µM (active) in the experiment on LOX IMVI; 4.84 µM (inactive) with U-251; 4.16 µM (inactive) in the experiment on HT-29; 4.34 µM (inactive) in the experiment on SF-268; 4.36 µM (inactive) in the experiment with OVCAR-8. In addition, the GI50 was 1.81 µM (inactive) in the experiment on RPMI-8226; 4.62 µM (inactive) in the experiment on NCI-H460; 3.86 µM (inactive) in the experiment with TK-10; 4.34 µM (inactive) with SK-MEL-28; 6.05 µM (inactive) in the experiment on UACC-257; 3.44 µM (inactive) in the experiment on SW-620. Also, the GI50 was 10 µM (inactive) in the experiment on HOP-62 and 8.49 µM (inactive) in the experiment with A549.

Consider `Cc1nc2c(o1)C(=O)c1ccccc1/C2=N/c1ccc(N2CCOCC2)cc1`, for which the GI50 in the experiment with NCI/ADR-RES was 2.88 µM (inactive); in the experiment with HOP-92 it was 10.7 µM (inactive); with HCT-116, 3.35 µM (inactive); in the experiment with Hs-578T, 3.22 µM (inactive); in the experiment on MDA-MB-435, 1.94 µM (inactive); in the experiment with UO-31, 3.43 µM (inactive). Besides, the GI50 is 37.8 µM (inactive) in the experiment on SK-OV-3; 2.01 µM (inactive) in the experiment with LOX IMVI; 3.52 µM (inactive) in the experiment on U-251; 24.8 µM (inactive) in the experiment on HT-29; 4.48 µM (inactive) in the experiment with SF-268; 2.81 µM (inactive) with OVCAR-8. The GI50 with RPMI-8226 is 3.38 µM (inactive); in the experiment with NCI-H460, 11.1 µM (inactive); with TK-10, 48 µM (inactive); in the experiment with SK-MEL-28 it was 3.15 µM (inactive); in the experiment on UACC-257, 1.94 µM (inactive); in the experiment on SW-620, 3.89 µM (inactive). The GI50 in the experiment with HOP-62 was 8.85 µM (inactive); in the experiment with A549, 6.19 µM (inactive).

On to `CCN(CC)c1ccc2cc(C(N)=O)/c(=N/c3ccc(F)cc3)oc2c1`, for which the GI50 in the experiment on NCI/ADR-RES was 35.6 µM (inactive); with HOP-92, 18.7 µM (inactive); in the experiment with HCT-116, 5.07 µM (inactive); in the experiment on Hs-578T it was 47.9 µM (inactive); in the experiment on MDA-MB-435, > 100 µM (inactive); in the experiment with UO-31, 26.9 µM (inactive). For the same molecule, the GI50 in the experiment on SK-OV-3 was 58.6 µM (inactive); in the experiment with LOX IMVI, 46.1 µM (inactive); with U-251, 38.5 µM (inactive); in the experiment with HT-29, 6.95 µM (inactive); with SF-268, 39.5 µM (inactive); in the experiment on OVCAR-8, 22.8 µM (inactive). Further, the GI50 in the experiment with RPMI-8226 was > 100 µM (inactive); in the experiment with NCI-H460, 6.76 µM (inactive); in the experiment with TK-10 it was 10.3 µM (inactive); with SK-MEL-28, > 100 µM (inactive); in the experiment with UACC-257, > 100 µM (inactive); with SW-620, > 100 µM (inactive). In addition, the results for the GI50 with HOP-62 and in the experiment with A549 were 28 µM (inactive) and 91 µM (inactive), respectively.

In the case of `COc1ccccc1NC(=S)N/N=C/c1ccccn1`, the GI50 with NCI/ADR-RES was 0.0253 µM (active); in the experiment with HOP-92, 1.26 µM (inactive); with HCT-116 it was < 0.0204 µM (active); in the experiment with Hs-578T, 14.3 µM (inactive); with MDA-MB-435, 1.61 µM (inactive); in the experiment on UO-31 it was 0.296 µM (active). The GI50 in the experiment with SK-OV-3 was 0.446 µM (active); with LOX IMVI, 0.0927 µM (active); in the experiment on U-251, 0.12 µM (active); in the experiment with HT-29 it was < 0.01 µM (active); with SF-268, 0.191 µM (active); in the experiment on OVCAR-8, 0.131 µM (active). For the same molecule, the GI50 in the experiment with RPMI-8226 was 0.0658 µM (active); in the experiment on NCI-H460, 0.495 µM (active); with TK-10, 0.367 µM (active); in the experiment with SK-MEL-28, 1.56 µM (inactive); with UACC-257, < 0.0318 µM (active); in the experiment with SW-620, 0.124 µM (active). Further, the GI50 in the experiment on HOP-62 was 0.247 µM (active); in the experiment with A549, 0.564 µM (active).

For `CC(NC(=O)C(Cc1c[nH]cn1)NC(=O)C1CCC(=O)N1)C(N)=O` (stereo not drawn) ([pGlu]-His-Ala-NH2; configuration not given here), the GI50 with NCI/ADR-RES is > 10 µM (inactive); in the experiment on HOP-92, > 100 µM (inactive); in the experiment with HCT-116, > 100 µM (inactive); with Hs-578T, > 100 µM (inactive); in the experiment on MDA-MB-435, > 100 µM (inactive); in the experiment with UO-31, > 100 µM (inactive). In addition, the GI50 in the experiment with SK-OV-3, in the experiment with LOX IMVI, in the experiment with U-251, with HT-29, with SF-268 and in the experiment on OVCAR-8 was > 100 µM (inactive) in each case. In addition, the GI50 in the experiment with RPMI-8226, in the experiment with NCI-H460, with TK-10, in the experiment on SK-MEL-28, with SW-620 and with HOP-62 was > 100 µM (inactive) in each case. The GI50 in the experiment with A549 was > 100 µM (inactive).

For the molecule `CN(C)CCN(C)c1ccc2c(=O)n(CCN(C)C)c(=O)n3c4ccccc4c(=O)c1c23`, the GI50 is 2.29 µM (inactive) with NCI/ADR-RES; 0.145 µM (active) in the experiment on HOP-92; 0.194 µM (active) in the experiment with HCT-116; 2.12 µM (inactive) with Hs-578T; 1.26 µM (inactive) with MDA-MB-435; 0.516 µM (active) in the experiment with UO-31. The GI50 in the experiment on SK-OV-3 is 1.55 µM (inactive); with LOX IMVI it was 0.35 µM (active); in the experiment on U-251, 0.489 µM (active); with HT-29, 0.397 µM (active); with OVCAR-8, 0.582 µM (active); with RPMI-8226, 0.179 µM (active). In addition, the GI50 in the experiment with NCI-H460 was 0.029 µM (active); with TK-10, 1.51 µM (inactive); in the experiment with SK-MEL-28, 2.12 µM (inactive); in the experiment on UACC-257, 1.56 µM (inactive); in the experiment on SW-620, 0.119 µM (active); in the experiment with HOP-62, 0.0897 µM (active). Further, in the experiment on A549, the GI50 was 0.0353 µM (active).
